Results reported in US12060588B2, “Methods of editing DNA methylation” (Whitehead Institute for Biomedical Research, priority 2016, dated 2024).

Tested on: BDNF promoter IV / BDNF expression
Test: BDNF expression in mouse cortical neurons (RT-qPCR)
Assay type: cell-based
Procedure: FIGS. 3A-3E depict targeted demethylation of BDNF promoter IV by dCas9-Tet1 to activate BDNF in neurons. FIG. 3A provides a schematic representation of targeting BDNF promoter IV by dCas9-Tet1 (dC-T) with specific gRNAs to erase methylation and activate BDNF expression. […] Bars are mean t SD of three biological replicates. FIG. 3C provides representative confocal images for BDNF induction in FIG. 3B. Top panel: BDNF expression was induced by 50 mM KCl treatment for 6 hrs. […] Stained in red for MAP2 (top two panels) or Cherry (bottom two panels), green for BDNF, blue for DAPI and grey for dCas9. Scale bar: 50 um. FIG. 3D depicts bisulfite sequencing of neurons in FIG. 3C. […] Shown is the mean percentage±SD of two biological replicates.
FIGS. 11A-11L depict targeted demethylation of BDNF promoter IV by dCas9-Tet1 in neurons. […] PAM for each gRNA is highlighted by a red box. […] Note that cultured neurons were treated with AraC on DIV2 to halt cell division in glial cells and neural progenitors. […] FIG. 11C provides EDU labeling analysis for the mouse primary neurons over the course of KCl treatment for 24 hrs. Note that extremely few EDU positive cells were observed. Stained in red for EDU, green for MAP2 and DAPI for nuclei. Scale bar: 500 um. FIG. 11D Upper panel: provides quantification of neuronal density over the course of KCl treatment. The post-mitotic neuron density remains steadily around 4.5×10^4/cm2 over time. Bars represent mean±SD of three experimental replicates. Lower panel: provides quantification of the EDU positive cells over the course of KCl treatment. Less than 2% of the cells are EDU-positive over 24 hrs. Bars represent mean±SD of three experimental replicates. FIG. 11E provides confocal micrographs of BDNF induction by ectopic expression of dCas9-Tet1 and a set of 4 gRNAs targeting BDNF promoter IV. Stained in green for BDNF, magenta for MAP2, red for Cherry and blue for DAPI. Note that the lentiviral infection efficiency is close to 100% in these neurons. Scale bar: 50 um. […] Bars represent mean±SD of three experimental replicates. […] FIG. 11J depicts DIV3 mouse cortical neurons were treated with ABT (50 uM) for 6 hours and then treated with KCl (50 mM) for 6-hour before harvest for RT-qPCR analysis. Bars represent mean±SD of three experimental replicates. FIG. 11K depicts DIV3 mouse cortical neurons were treated with 2-Hydroxyglutarate (10 mM) for 2 hours and then treated with KCl (50 mM) for 6-hour before harvest for RT-qPCR analysis. Bars represent mean±SD of three experimental replicates. FIG. 11L depicts DIV3 mouse cortical neurons derived from wild-type or Tet1 knockout E17.5 embryos were subject to time course KCl treatment experiments (6, 9 and 12 h). Bars represent mean±SD of three experimental replicates.
DNA replication-independent active demethylation has been proposed to operate in post-mitotic neurons (Guo et al., 2011; Martinowich et al., 2003). To test whether active demethylation can be induced in post-mitotic neurons, we applied the dCas9-Tet1 system to study the regulation of the BDNF gene. BDNF expression can be induced by neuronal activity accompanied by demethylation of its promoter IV (Chen et al., 2003; Martinowich et al., 2003). We designed 4 gRNAs targeting 11 CpGs in BDNF promoter IV (FIG. 11A) to determine whether dCas9-Tet1 can activate BDNF by inducing demethylation of this promoter (FIG. 3A). Mouse cortical neurons were isolated from E17.5 embryos and cultured for two days in vitro (DIV2) following a well-established experimental procedure for producing primary neuronal culture (Ebert et al., 2013). […] Neurons at day 3 in culture (DIV3) were infected with lentiviral vectors expressing dCas9-Tet1 with or without the 4 gRNAs at almost 100% transduction efficiency (FIG. 11E). At 48-hour post infection some of the cultures were treated with KCl to induce neuronal activity. […] We performed bisulfite sequencing to examine the methylation state of BDNF promoter IV. […]

[1] = with 4 gRNAs targeting BDNF promoter IV, DIV3 neurons, lentiviral infection 2 days

| Substance | induction of BDNF expression [1] | induction of BDNF expression (in the absence of gRNAs, DIV3 neurons, lentiviral infection 2 days) | induction of BDNF expression (with each individual gRNA targeting BDNF promoter IV) |
| --- | --- | --- | --- |
| dC-dT: dCas9 fused to an inactive mutant form of Tet1 (H1672Y, D1674A), SEQ ID NO: 160 | no induction | – | – |
| dCas9-Tet1: catalytically inactive Cas9 (dCas9) fused through NLS to the Tet1 catalytic domain, SEQ ID NO: 159; lentivirally expressed with gRNAs | about 6 fold | less than 2 fold | 2-3 fold |
